# Patent US9253979B2, “Methods of controlling insects” (priority 2010, dated 2016)
# Where two headings read alike, the source gives them in different places.
# Tests used:
# Format in all cases: in vivo, Drosophila melanogaster
# [1] = system: Line 14 (susceptible wildtype control) Drosophila strain; experiment: Dosage mortality testing, first instar larvae, Line 14 strain; settings: applied to insect diet, Probit analysis
# Protocol: (§1) Dosage mortality testing was conducted on four strains of Drosophila melanogaster. Each of the Drosophila strains tested had at least one lesion in one of the nAChR subunits or was a control strain lacking a lesion. […] The 4A4D Drosophila strain was a double mutant having lesions in both the Dα1 subunit and the Dβ2 subunit. The susceptible Drosophila strain or control Drosophila strain was the wildtype Drosophila strain in which the EMS lesions were generated, and is referred to in Tables 1-4 as the “Line 14” strain.
# Screening was performed on first instar larvae with five replicates of fifty larvae per vial at each concentration to determine the susceptibility of each Drosophila strain to the spinosyn composition and to an imidacloprid composition. The spinosyn composition (spinosad) included 85% spinosyn A and 15% spinosyn D in a sugar solution. Stock solutions were typically made 0.1% w/v in acetone and then diluted to lower concentrations. The spinosyn or imidacloprid compositions were then applied to the insect diet, allowed to dry and then infested with the insect larvae. […]
# [2] = system: Dα1EMS1 Drosophila strain (lesion in the Dα1 nAChR subunit); experiment: Dosage mortality testing, first instar larvae, Dα1EMS1 strain; settings: for Fold resistance: Dα1EMS1 strain relative to Line 14
# Protocol: as §1
# (§2) Screening was performed on first instar larvae with five replicates of fifty larvae per vial at each concentration to determine the susceptibility of each Drosophila strain to the spinosyn composition and to an imidacloprid composition. The spinosyn composition (spinosad) included 85% spinosyn A and 15% spinosyn D in a sugar solution. Stock solutions were typically made 0.1% w/v in acetone and then diluted to lower concentrations. The spinosyn or imidacloprid compositions were then applied to the insect diet, allowed to dry and then infested with the insect larvae.
# (§3) The concentrations of the spinosyn composition and the imidacloprid composition were selected across a range to provide data enabling the effective dose (ED) that produces a response in 50% of the first instar larvae (ED50) and the effective dose that produces a response in 90% of the first instar larvae (ED90) to be calculated. After administering the spinosyn composition or the imidacloprid composition, the first instar larvae were visually monitored for mortality. Data were analyzed using Probit analysis to determine the ED50 and the ED90, along with upper and lower 95% limits.
# [3] = system: Dβ2EMS2 Drosophila strain (lesion in the Dβ2 subunit); experiment: Dosage mortality testing, first instar larvae, Dβ2EMS2 strain; settings: for Fold resistance: Dβ2EMS2 strain relative to Line 14
# Protocol: as §1, §2, §3
# [4] = system: 4A4D Drosophila strain (double mutant, lesions in both the Dα1 subunit and the Dβ2 subunit); settings: for Fold resistance: 4A4D strain relative to Line 14
# Protocol: as §1, §2, §3
# [5] = Dα1EMS1 strain, first instar larvae, mortality, applied to insect diet, Probit analysis
# [6] = Dβ2EMS2 strain, first instar larvae, mortality, applied to insect diet, Probit analysis
# [7] = 4A4D strain, first instar larvae, mortality, applied to insect diet, Probit analysis
smiles,measurement,setting,value
"O=[N+]([O-])NC1=NCCN1Cc1ccc(Cl)nc1 [imidacloprid composition, imidacloprid]",ED50,[1],0.14 ppm
same,ED90,[1],0.28 ppm
same,ED50,[2]; [5],2.91 ppm
same,ED90,[2]; [5],5.77 ppm
same,Fold resistance,[2]; ED50 table,20.63
same,Fold resistance,[2]; ED90 table,20.63
same,ED50,[3]; [6],4.04 ppm
same,ED90,[3]; [6],8.02 ppm
same,Fold resistance,[3]; ED50 table,28.69
same,Fold resistance,[3]; ED90 table,28.70
same,ED50,[4]; [7],3.78 ppm
same,ED90,[4]; [7],7.49 ppm
same,Fold resistance,[4]; ED50 table,26.81
same,Fold resistance,[4]; ED90 table,26.81
